Reference: patent US20200129524A1, “PERSONALIZED CONTRACEPTIVE FORMULATIONS” (Agile Therapeutics, Inc., priority 2017, published 2020)
Where “and” joins values, the source holds several entries; their conditions need not be identical. Equal values may be shown once.

System: healthy women
Assay: LNG level and required dose calculated from the trial's pregnancy rates (equations 2-4)
Type: in vivo
Details: for LNG Level / Required Dose: 30 μg/day EE; for LNG Required Dose: range for pregnancy rates between 3% and 1.5%, EE 30 ug/day
Text: There is an important unmet need pertaining to the determination of the amount of progestin required to provide contraceptive effectiveness to all women based on their BMI or body weight. Without intending to be bound to a particular understanding of mechanism of action, this invention is premised in part on the understanding that contraceptive effectiveness is based on the principle that there is a physical reaction or binding of a drug to its receptor and that therefore drug concentration will play an important part in contraceptive effectiveness. Further, by knowing the effect of a progestin amount (drug concentration) on contraceptive effectiveness on different BMI or body weight women, we can determine the amounts needed to provide effectiveness for any woman of known BMI or body weight. Given that contraceptive hormones interact reversibly with their receptors and assuming the resultant effect is proportional to the receptors occupied, a relationship between the effect and the free concentration of drug can be written as (Goodman and Gilman's Pharmaceutical Basis of Therapeutics, 8th edition, p. 44) Effect=Maximal effect (D)/(Kd+D) (equation 1) Where D is the concentration of the circulating free drug and Kd is the dissociation constant for the drug-drug receptor complex, i.e., the ratio of the rate constants of the forward and dissociation binding reactions. The steady state concentration D of the circulating free drug in the plasma is correlated to the dosage rate, by the equation (Goodman and Gilman's Pharmaceutical Basis of Therapeutics, 8th edition, p. 21), Dosage Rate=CL×D (CL is the clearance and it is constant for any specific drug). Therefore D=Dosage rate/CL. Substituting this in equation 1 one obtains Effect=Maximal effect×Dosage rate/CL/(Kd+Dosage rate/CL) (equation 2) […] Note that when equation 3 is substituted into equation 2 the clearance CL cancels out and is not involved in the calculations. Using the above formulas and isolating for D yields this equation: D=(Kd*Effect)/(1−Effect) (equation 4) […] They represent the relative dosage compared to that of the women in the 90 to 120 pound category (i.e. those that had 1.5% pregnancy rate). […] Therefore, D=(1.827*0.973)/(0.027) (equation 5) D=67 μg/day (equation 6) Required Dose=120×120/67=215 (equation 7). We consider the maximum acceptable percent pregnancy for 100 women over a period of one year to be 3%. […] The same analysis can be performed using the BMI of the women. […] The same analysis as performed for the required dosage based on women's body weight was performed using BMI and the data are shown in Tables 4 and 5 and plotted in FIG. 4. Although it may be easier for the medical practitioner to use the body weight of the subject in the treatment process, they can also use the BMI. It is therefore another object of the invention to treat women in a personalized manner depending on their BMI.

[1] = 1.5% pregnancy rate, BMI >17.5 ≤ 22.5
[2] = 1.5% pregnancy rate, BMI >22.5 ≤ 27.5
[3] = 1.5% pregnancy rate, BMI >27.5 ≤ 32.5
[4] = 1.5% pregnancy rate, BMI >32.5 ≤ 37.5
[5] = 1.5% pregnancy rate, BMI >37.5 ≤ 42.5
[6] = 1.5% pregnancy rate, BMI >42.5 ≤ 47.5
[7] = 1.5% pregnancy rate, BMI >47.5 ≤ 52.5
[8] = 1.5% pregnancy rate, weight 90 ≥ W <120 lbs
[9] = 1.5% pregnancy rate, weight 120 ≥ W <150 lbs
[10] = 1.5% pregnancy rate, weight 150 ≥ W <180 lbs
[11] = 1.5% pregnancy rate, weight 180 ≥ W <210 lbs
[12] = 1.5% pregnancy rate, weight 210 ≥ W <240 lbs
[13] = 1.5% pregnancy rate, weight 240 ≥ W <270 lbs
[14] = 1.5% pregnancy rate, weight 270 ≥ W lbs
[15] = 3% pregnancy rate, BMI >17.5 ≤ 22.5
[16] = 3% pregnancy rate, BMI >22.5 ≤ 27.5
[17] = 3% pregnancy rate, BMI >27.5 ≤ 32.5
[18] = 3% pregnancy rate, BMI >32.5 ≤ 37.5
[19] = 3% pregnancy rate, BMI >37.5 ≤ 42.5
[20] = 3% pregnancy rate, BMI >42.5 ≤ 47.5
[21] = 3% pregnancy rate, BMI >47.5 ≤ 52.5
[22] = 3% pregnancy rate, weight 90 ≥ W <120 lbs
[23] = 3% pregnancy rate, weight 120 ≥ W <150 lbs
[24] = 3% pregnancy rate, weight 150 ≥ W <180 lbs
[25] = 3% pregnancy rate, weight 180 ≥ W <210 lbs
[26] = 3% pregnancy rate, weight 210 ≥ W <240 lbs
[27] = 3% pregnancy rate, weight 240 ≥ W <270 lbs
[28] = 3% pregnancy rate, weight 270 ≥ W lbs

## C#C[C@]1(O)CC[C@H]2[C@@H]3CCC4=CC(=O)CC[C@@H]4[C@H]3CC[C@@]21CC [LNG, levonorgestrel]
[1]
  LNG Level: 74.7 µg/day
  Required Dose: 192 µg/day
[2]
  LNG Level: 52.7 µg/day
  Required Dose: 273 µg/day
[3]
  LNG Level: 67.1 µg/day
  Required Dose: 215 µg/day
[4]
  LNG Level: 41.1 µg/day
  Required Dose: 350 µg/day
[5]
  LNG Level: 26.6 µg/day
  Required Dose: 541 µg/day
[6]
  LNG Level: 38.9 µg/day
  Required Dose: 370 µg/day
[7]
  LNG Level: 25.6 µg/day
  Required Dose: 563 µg/day
[8]
  LNG Level: 120.0 µg/day
  Required Dose: 120 µg/day
[9]
  LNG Level: 67 µg/day and 66.9 µg/day
  Required Dose: 215 µg/day and 210 µg/day
[10]
  LNG Level: 46.1 µg/day
  Required Dose: 312 µg/day
[11]
  LNG Level: 39.6 µg/day
  Required Dose: 364 µg/day
[12]
  LNG Level: 45.4 µg/day
  Required Dose: 317 µg/day
[13]
  LNG Level: 31.5 µg/day
  Required Dose: 457 µg/day
[14]
  LNG Level: 34.1 µg/day
  Required Dose: 422 µg/day
[15]
  LNG Level: 152.0 µg/day
  Required Dose: 95 µg/day
[16]
  LNG Level: 106.9 µg/day
  Required Dose: 135 µg/day
[17]
  LNG Level: 136.1 µg/day
  Required Dose: 106 µg/day
[18]
  LNG Level: 83.3 µg/day
  Required Dose: 173 µg/day
[19]
  LNG Level: 53.8 µg/day
  Required Dose: 267 µg/day
[20]
  LNG Level: 79 µg/day
  Required Dose: 182 µg/day
[21]
  LNG Level: 51.8 µg/day
  Required Dose: 278 µg/day
[22]
  LNG Level: 241.7 µg/day
  Required Dose: 59 µg/day
[23]
  LNG Level: 135.6 µg/day
  Required Dose: 104 µg/day
[24]
  LNG Level: 93.5 µg/day
  Required Dose: 154 µg/day
[25]
  LNG Level: 80.3 µg/day
  Required Dose: 179 µg/day
[26]
  LNG Level: 92.0 µg/day
  Required Dose: 156 µg/day
[27]
  LNG Level: 63.8 µg/day
  Required Dose: 226 µg/day
[28]
  LNG Level: 69.2 µg/day
  Required Dose: 208 µg/day
BMI >17.5 ≤ 22.5
  LNG Required Dose: 95 to 192 µg/day
BMI >22.5 ≤ 27.5
  LNG Required Dose: 135 to 273 µg/day
BMI >27.5 ≤ 32.5
  LNG Required Dose: 106 to 215 µg/day
BMI >32.5 ≤ 37.5
  LNG Required Dose: 173 to 350 µg/day
BMI >37.5 ≤ 42.5
  LNG Required Dose: 267 to 541 µg/day
BMI >42.5 ≤ 47.5
  LNG Required Dose: 182 to 370 µg/day
BMI >47.5 ≤ 52.5
  LNG Required Dose: 278 to 563 µg/day
